The structures appear in SMILES notation. Where two headings read alike, the source gives them in different places. Marks after values point to notes of the source that are not given here.

The values below come from US20040053234A1, “Polynucletides that control delta-6 desaturase genes and methods for identifying compounds for modulating delta-6 desaturase” (priority 2000, published 2004).

The subject of data set [1] is hD6D-1 control region. Briefly: Luciferase activity of HepG2 clones stably transfected with hD6D-1 control region-luciferase construct pGh4015.1. It is filed as cell-based, human. Here is the method: Stable transfection was performed using the HepG2 cell line, which was adapted to grow in tissue culture dishes treated with 0.1% gelatin. The day before transfection, the cells were plated into 60 mm tissue culture dishes, so that they were 85-95% confluent on the day of transfection. For each dish of cells to be transfected, 10 μg of plasmid DNA (pGh4015.1) along with 1 μg of the vector pRSV-NEO (ATCC# 37198), was diluted in 500 μl of Opti-MEM (GIBCO-BRL) without serum. For each dish of cells to be transfected, 10 μl of Lipofectamine 2000 reagent (GIBCO BRL) was diluted in 500 μl of Opti-MEM, and incubated at room temperature for 5 min. The diluted DNA was mixed with the diluted lipofectamine and incubated at room temperature for 20 min. The DNA-lipofectamine complexes (1 ml) were put directly into each dish of cells to be transfected and mixed gently by rocking the dish back and forth The cells were incubated at 37° C. in a CO2 incubator for 24 h Each transfected dish of cells was then passaged into two 150 mm tissue culture dishes. The following day, geneticin (GIBCO BRL) was added to the culture medium at a concentration of 800 μg/ml. The cells were kept in selection for 4 weeks. Clones were transferred into a 96-well plate (one clone per well) until they reached confluence. Subsequently, the clones were transferred to a 24-well plate before been tested for luciferase activity.
The luciferase assays were done using the Luciferase Assay System from Promega (Promega, Wis.). Briefly, the cells grown in a 24well plate, were washed with PBS (Ca^2+ and Mg^2+ free) and lysed with about 100 μl of 1× CCLR (Cell Culture Lysis Reagent, Promega). Twenty μl of cell lysate was dispensed into a luminometer tube. The tube was placed in the luminometer (Berthold #9707, Monolight 3010, PharMingen, San Diego, Calif.) and 100 μl of Luciferase Assay Reagent (Promega) was injected into the tube. The luminometer was programmed to perform a 3-second measurement delay followed by a 15-second measurement read for luciferase activity. The results were expressed in Relative Light Unit per 15 seconds (RLU/15s).
The HepG2 stable clone 19 and 72, were plated in a 24-well plate (one plate per clone) treated with 0.1% gelatin, containing α-MEM supplemented with 10% FBS (Fetal Bovine Serum) and 200 μg/ml of geneticin (all from GIBCO BRL). When the cells reached about 80% confluence, the culture medium was replace with Williams' medium E (GIBCO) containing insulin (1 μM), dexamethasone (1 nM) and 0.27% BSA (Bovine Serum Albumin) all from Sigma. Six wells for each plate were treated with DHA at a concentration of 0, 25, 50 and 100 μM. After an incubation time of 6, 24 and 48 h, the wells were washed with PBS and the cells lysed with 100 μl of 1× CCLR (Promega). The luciferase assays were performed using a single tube luminometer using the Luciferase Assay System from Promega as indicated above.

Data set [2] deals with delta-6-desaturase. It is filed as in vivo, rat. As to conditions: for D6D activity: hepatic microsomes. The procedure: As described in other Examples, female Wistar rats were intraperitoneally (i.p.) injected with 50 mg of streptozotocin per kg of body weight. Three days later, animals received a second dose of streptozotocin (25 mg/kg body weight). Two and 7 weeks after the onset of diabetes, non-fasted control and streptozotocin (blood glucose levels 21 to >33 mmoles/L) treated rats were put under light halothane (15% in mineral oil) anaesthesia and sacrificed by exsanguination between 9:00 and 10:00 a.m. Under these experimental conditions, variations in enzyme activity caused by circadian rhythm (Actis Dato et al., 1973, Lipids, 8: 1-6) can be avoided and a substantial (although submaximal) activity of liver desaturase can be obtained (Actis Dato et al., 1973, Lipids, 8: 1-6 and Inkpen et al., 1969, J. Lipid Res., 10: 277-282). Livers were quickly rinsed with cold 0.9% NaCl solution, weighed and minced with scissors. All procedures were performed at 4° C. unless otherwise specified. Microsomes were isolated by differential ultracentrifugation as previously described (de Antueno et al., 1994, Lipids, 29: 327-331). Briefly, livers were homogenized in a solution (1:3 w/v) containing 0.25 M sucrose, 62 mM potassium phosphate buffer (pH 7.0), 0.15 M KCl, 1.5 mM N-acetylcysteine, 5 mM MgCl2, and 0.1 mM EDTA using 4 strokes of a Potter-Elvehjem tissue homogenizer. […] The absence of mitochondrial contamination was enzymatically assessed as previously described (Kilberg M. S. and Christensen H. N., 1979, Biochemistry, 18: 1525-1530). The protein concentration was measured by the method of Lowry et al. with bovine serum albumin as the standard (Lowry et al., 1951, J. Biol. Chem., 193: 265-275).
(§1) The activities of delta-5 and delta-6 desaturases were determined by measuring the conversion of [1-^14C]20:3n-6 (dihomogamma-linolenic acid) to [1-^14C]20:4n-6 (arachidonic acid) and [1-^14C]18:2n-6 (linoleic acid) to [1-^14C]18:3n-6 (gamma-linolenic acid), respectively. […]
(§2) Radiolabeled fatty acid methyl esters (FAME) were analyzed as previously described (de Antueno et al., 1993, Lipids, 28: 285-290). […]

Data set [3] in a line: Plasma phospholipid arachidonic acid content in streptozotocin-induced diabetic rats. The format is in vivo, rat. The procedure: Eighteen rats were injected with 75 mg STZ/kg bd wt to induce the diabetic state. After 4 days the blood glucose level in each of the STZ rats was checked. The blood sample was obtained from the tail vein. […] The diabetic rats were housed 2 per cage. After 2 weeks, approximately one half of the diabetic rats and control rats were sacrificed. After 7 weeks, the remaining diabetic and control rats were sacrificed. By sacrificing controls at the same time we eliminated any possible age effect when completing our data analysis. The rats were sacrificed by exsanguination and tissues were removed for fatty acid analyses. […]
The different lipid classes from the RBCs (phospholipids), plasma and liver (phospholipids, free fatty acids, triglycerides and cholesterol esters) were separated using neutral lipid thin-layer chromatography. […] Compounds were detected by spraying the plates with 2,7-dichlorofluorescein and the silica gel containing each of the lipid class bands was scraped from the plate and placed in screw cap test tubes.
Four ml of BF3-methanol was added to the scraped silica gel fractions or the dry cholesterol ester fraction and heated for 30 min at 90° C. […] The fatty acid methyl esters (FAME) were dissolved in HPLC grade hexane and analyzed by gas chromatography. […]

In data set [4] the test system is delta-5-desaturase. Briefly: Hepatic delta-5-desaturase activity in streptozotocin treated rats. It is filed as in vivo, rat. As to conditions: hepatic microsomes. The procedure: As described in other Examples, female Wistar rats were intraperitoneally (i.p.) injected with 50 mg of streptozotocin per kg of body weight. Three days later, animals received a second dose of streptozotocin (25 mg/kg body weight). Two and 7 weeks after the onset of diabetes, non-fasted control and streptozotocin (blood glucose levels 21 to >33 mmoles/L) treated rats were put under light halothane (15% in mineral oil) anaesthesia and sacrificed by exsanguination between 9:00 and 10:00 a.m. […] The absence of mitochondrial contamination was enzymatically assessed as previously described (Kilberg M. S. and Christensen H. N., 1979, Biochemistry, 18: 1525-1530). The protein concentration was measured by the method of Lowry et al. with bovine serum albumin as the standard (Lowry et al., 1951, J. Biol. Chem., 193: 265-275).
as §1, §2

In the case of `CC/C=C\C/C=C\C/C=C\C/C=C\C/C=C\C/C=C\CCC(=O)O` [DHA, docosahexaenoic acid], the Luciferase activity in data set [1] (HepG2 clone 19, DHA 25 μM, 6 h) is reported as 3.91E+06 RLU/15 s; in data set [1] (HepG2 clone 19, DHA 25 μM, 24 h) it was 8.33E+06 RLU/15 s; in data set [1] (HepG2 clone 19, DHA 25 μM, 48 h), 1.35E+07 RLU/15 s; in data set [1] (HepG2 clone 19, DHA 50 μM, 6 h), 3.96E+06 RLU/15 s; in data set [1] (HepG2 clone 19, DHA 50 μM, 24 h), 6.32E+06 RLU/15 s; in data set [1] (HepG2 clone 19, DHA 50 μM, 48 h) it was 8.73E+06 RLU/15 s. Also, the Luciferase activity in data set [1] (HepG2 clone 19, DHA 100 μM, 6 h) worked out at 2.11E+06 RLU/15 s; in data set [1] (HepG2 clone 19, DHA 100 μM, 24 h), 3.87E+06 RLU/15 s; in data set [1] (HepG2 clone 19, DHA 100 μM, 48 h) it was 4.16E+06 RLU/15 s; in data set [1] (HepG2 clone 72, DHA 25 μM, 6 h) it was 8.27E+05 RLU/15 s; in data set [1] (HepG2 clone 72, DHA 25 μM, 24 h) it was 2.66E+06 RLU/15 s; in data set [1] (HepG2 clone 72, DHA 25 μM, 48 h), 3.68E+06 RLU/15 s. Moreover, the Luciferase activity amounted to 6.69E+05 RLU/15 s in data set [1] (HepG2 clone 72, DHA 50 μM, 6 h); 1.43E+06 RLU/15 s in data set [1] (HepG2 clone 72, DHA 50 μM, 24 h); 2.18E+06 RLU/15 s in data set [1] (HepG2 clone 72, DHA 50 μM, 48 h); 3.07E+05 RLU/15 s in data set [1] (HepG2 clone 72, DHA 100 μM, 6 h); 8.55E+05 RLU/15 s in data set [1] (HepG2 clone 72, DHA 100 μM, 24 h); 9.80E+05 RLU/15 s in data set [1] (HepG2 clone 72, DHA 100 μM, 48 h).

As for `CN(N=O)C(=O)N[C@H]1C(O)O[C@H](CO)[C@@H](O)[C@@H]1O` (stereo partly drawn) [STZ, 2-deoxy-2-[([methylnitroso-amino]carbonyl)amino]-D-glucopyranose], the values for the D6D activity in data set [2] (2 weeks after STZ treatment) and in data set [2] (7 weeks after STZ treatment) were 125.4 ± 34^a pmol/mg microsomal protein/min and 102.8 ± 29^c pmol/mg microsomal protein/min, respectively. For the same molecule, the “Reduction of delta-6-desaturase activity in hepatic microsomes compared to control rats” value in data set [2] (streptozotocin diabetic rats) came to 37%. The entries for the “Reduction of plasma phospholipid AA content” value in data set [3] (2 week streptozotocin-induced diabetic rats) and in data set [3] (7 week streptozotocin-induced diabetic rats) were 31% and 27%, respectively. The D5D activity in data set [4] (2 weeks after STZ treatment) is recorded as 195.6 ± 56^b pmol/mg microsomal protein/min; in data set [4] (7 weeks after STZ treatment), 129.7 ± 30^d pmol/mg microsomal protein/min.
